This note sets out measurements from patent US9458181B2, “Cathepsin cysteine protease inhibitors” (Merck Sharp & Dohme Corp., priority 2013, dated 2016).

One assay has as its target human cathepsin K (UniProt P43236). Briefly: Cathepsin K Assay (hrbCat K). Type of assay: biochemical. The note with it: human cathepsin K 0.4 nM, Z-Leu-Arg-AMC 8 μM, pH 5.5, 15 min preincubation; read-out: hrbCat K IP. Here is the method:
Cathepsin K Assay (hrbCat K)
(§1) Serial dilutions (⅓) from 500 μM down to 0.025 μM of test compounds were prepared in dimethyl sulfoxide (DMSO). Then 0.5 μL of DMSO from each dilution were added to 18.75 μL of assay buffer (MES, 50 mM (pH 5.5); EDTA, 2.5 mM; DTT, 2.5 mM and 10% DMSO) containing human cathepsin K (0.4 nM) in assay buffer solution. The assay solutions were mixed for 5-10 seconds on a shaker plate and incubated for 15 minutes at room temperature. Z-Leu-Arg-AMC (8 μM) in 6.25 μL of assay buffer was added to the assay solutions. Hydrolysis of the coumarin leaving group (AMC) was followed by spectrofluorometry (Exλ=360 nm; Emλ=460 nm) for 30 minutes. Percent of inhibition were calculated by fitting experimental values to standard mathematical model for dose response curve.

The target of a further assay is T1, human cathepsin F (Homo sapiens, UniProt Q9UBX1).
T1 sequence (Q9UBX1 271-484): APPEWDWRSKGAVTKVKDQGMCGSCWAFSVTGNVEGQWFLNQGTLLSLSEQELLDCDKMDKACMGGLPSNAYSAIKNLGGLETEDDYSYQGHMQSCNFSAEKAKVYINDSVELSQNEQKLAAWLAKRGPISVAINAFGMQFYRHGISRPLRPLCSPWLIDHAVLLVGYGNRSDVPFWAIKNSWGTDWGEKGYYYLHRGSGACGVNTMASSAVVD
Briefly: Cathepsin F assay (hCat F). Format: biochemical. The note with it: human cathepsin F 10 nM, Z-Phe-Arg-AMC 8 μM, pH 5.5, 15 min preincubation; read-out: hCat F IP. Here is the method:
Cathepsin F assay (hCat F)
as §1, with “F (10” for “K (0.4”, “Z-Phe-Arg-AMC” for “Z-Leu-Arg-AMC”, “(Exp, =360” for “(Exλ=360”, “EmX=460” for “Emλ=460”, “20” for “30”

SMILES strings stand for the structures. pIC50: −log10 of the molar value.

As for `N#CC1(NC(=O)[C@@H]2CC(F)(F)CC[C@H]2c2oc(CC(F)(F)F)nc2-c2ccc(N3CCS(=O)(=O)CC3)cc2)CC1` [Example 16, (1R,2R)-N-(1-cyanocyclopropyl)-2-(4-(4-(1,1-dioxidothiomorpholino)phenyl)-2-(2,2,2-trifluoroethyl)oxazol-5-yl)-5,5-difluorocyclohexane-carboxamide], the values for the pIC50 at human cathepsin K and at human cathepsin F were 9.21 and 6.68, respectively.

Turning to `COC(c1ccccc1)(c1nc(-c2ccc(N3CCS(=O)(=O)CC3)cc2)c([C@@H]2CCCC[C@H]2C(=O)NC2(C#N)CC2)o1)C(F)(F)F` (mixture of isomers) [Example 116, (1R,2R)-N-(1-cyanocyclopropyl)-2-(4-(4-(1,1-dioxidothiomorpholino)phenyl)-2-((R and S)-2,2,2-trifluoro-1-methoxy-1-phenylethyl)oxazol-5-yl)cyclohexanecarboxamide], the figures for the pIC50 at human cathepsin K and at human cathepsin F were 8.86 and 5.92, respectively.

With `N#CC(CC(F)(F)F)NC(=O)[C@@H]1CCCC[C@H]1c1oc(-c2ccc(F)cc2)nc1-c1ccc(N2CCS(=O)(=O)CC2)cc1` (single isomer, unassigned) [Example 132, (1R,2R)-N-((S or R)-1-cyano-3,3,3-trifluoropropyl)-2-(4-(4-(1,1-dioxidothiomorpholino)phenyl)-2-(4-fluorophenyl)oxazol-5-yl)cyclohexanecarboxamide], the pIC50 on human cathepsin K was 8.75; on human cathepsin F it was 6.17.

For the molecule `CC(C)[C@@H](C#N)NC(=O)[C@@H]1CCCC[C@H]1c1oc(-c2ccc(F)cc2)nc1-c1ccc(N2CC[S+]([O-])CC2)cc1` [Example 151, (1R,2R)-N-((S)-1-cyano-2-methylpropyl)-2-(2-(4-fluorophenyl)-4-(4-(1-oxidothiomorpholino)phenyl)oxazol-5-yl)cyclohexanecarboxamide], the pIC50 is 8.51 on human cathepsin K and 6.20 on human cathepsin F.

In the case of `N#CCNC(=O)[C@@H]1CCCC[C@H]1c1oc(-c2ccc(F)cc2)nc1-c1ccc(N2CCS(=O)(=O)CC2)cc1` [Example 112, (1R,2R)-N-(cyanomethyl)-2-(4-(4-(1,1-dioxidothiomorpholino)phenyl)-2-(4-fluorophenyl)oxazol-5-yl)cyclohexanecarboxamide], the values for the pIC50 on human cathepsin K and at human cathepsin F were 9.14 and 6.90, respectively.

Take `CC1(c2nc(-c3ccc(N4CCS(=O)(=O)CC4)cc3)c([C@@H]3CCCC[C@H]3C(=O)NC3(C#N)CC3)o2)CC[Si](C)(C)CC1` [Example 53, (1R,2R)-N-(1-cyanocyclopropyl)-2-(4-(4-(1,1-dioxidothiomorpholino)phenyl)-2-(1,1,4-trimethylsilinan-4-yl)oxazol-5-yl)cyclohexanecarboxamide]: the results for the pIC50 on human cathepsin K and on human cathepsin F were 8.71 and 6.24, respectively.

As for `COc1ccccc1-c1nc(-c2ccc(N3CCS(=O)(=O)CC3)cc2)c([C@@H]2CCCC[C@H]2C(=O)NC2(C#N)CC2)o1` [Example 72, (1R,2R)-N-(1-cyanocyclopropyl)-2-(4-(4-(1,1-dioxidothiomorpholino)phenyl)-2-(2-methoxyphenyl)oxazol-5-yl)cyclohexanecarboxamide], the pIC50 is 8.83 on human cathepsin K and 6.12 at human cathepsin F.

Regarding `CC(C)(C)[C@@H](C#N)NC(=O)[C@@H]1CCCC[C@H]1c1oc(-c2ccc(F)cc2)nc1-c1ccc(N2CCS(=O)(=O)CC2)cc1` [Example 157, (1R,2R)-N-((S)-1-cyano-2,2-dimethylpropyl)-2-(4-(4-(1,1-dioxidothiomorpholino)phenyl)-2-(4-fluorophenyl)oxazol-5-yl)cyclohexanecarboxamide], the pIC50 on human cathepsin K is 6.54; at human cathepsin F, 5.63.

On to `CC(C)(O)C(C#N)NC(=O)[C@@H]1CCCC[C@H]1c1oc(-c2ccc(F)cc2)nc1-c1ccc(N2CCS(=O)(=O)CC2)cc1` (single isomer, unassigned) [Example 159, (1R,2R)-N-((S or R)-1-cyano-2-hydroxy-2-methylpropyl)-2-(4-(4-(1,1-dioxidothiomorpholino)phenyl)-2-(4-fluorophenyl)oxazol-5-yl)cyclohexanecarboxamide], for which the pIC50 at human cathepsin K was 7.36; at human cathepsin F it was 5.16.

As to `CS(=O)(=O)C1CN(c2ccc(-c3nc(C(F)(F)C(F)(F)F)oc3[C@@H]3CCCC[C@H]3C(=O)NC3(C#N)CC3)cc2)C1` [Example 23, (1R,2R)-N-(1-cyanocyclopropyl)-2-(4-(4-(3-(methylsulfonyl)azetidin-1-yl)phenyl)-2-(perfluoroethyl)oxazol-5-yl)cyclohexanecarboxamide], the figures for the pIC50 on human cathepsin K and on human cathepsin F were 9.21 and 6.42, respectively.

As to `N#CC1(NC(=O)[C@@H]2CCCC[C@H]2c2oc(-c3ccc(F)c(Cl)c3)nc2-c2ccc(N3CCS(=O)(=O)CC3)cc2)CC1` [Example 36, (1R,2R)-2-(2-(3-chloro-4-fluorophenyl)-4-(4-(1,1-dioxidothiomorpholino)phenyl)oxazol-5-yl)-N-(1-cyanocyclopropyl) cyclohexanecarboxamide], the pIC50 on human cathepsin K was 9.03; at human cathepsin F, 6.42.

As for `N#CC1(NC(=O)[C@@H]2CCCC[C@H]2c2oc(-c3cncc(C(F)(F)F)c3)nc2-c2ccc(N3CCS(=O)(=O)CC3)cc2)CC1` [Example 88, (1R,2R)-N-(1-cyanocyclopropyl)-2-(4-(4-(1,1-dioxidothiomorpholino)phenyl)-2-(5-(trifluoromethyl)pyridin-3-yl)oxazol-5-yl)cyclohexanecarboxamide], the pIC50 is 8.66 on human cathepsin K and 5.62 on human cathepsin F.

Regarding `N#CC1(NC(=O)[C@@H]2CCCC[C@H]2c2oc(C(F)(F)c3ccccc3)nc2-c2ccc(N3CCS(=O)(=O)CC3)cc2)CC1` [Example 130, (1R,2R)-N-(1-cyanocyclopropyl)-2-(2-(difluoro(phenyl)methyl)-4-(4-(1,1-dioxidothiomorpholino)phenyl)oxazol-5-yl)cyclohexanecarboxamide], the pIC50 was 8.90 on human cathepsin K and 7.15 on human cathepsin F.

With `CC(C)C(C#N)NC(=O)[C@@H]1CCCC[C@H]1c1oc(-c2ccc(F)cc2)nc1-c1ccc(N2CCS(=O)(=O)CC2)cc1` (single isomer, unassigned) [Example 124, (1R,2R)-N-((R or S)-1-cyano-2-methylpropyl)-2-(4-(4-(1,1-dioxidothiomorpholino)phenyl)-2-(4-fluorophenyl)oxazol-5-yl)cyclohexanecarboxamide], the pIC50 at human cathepsin K is 5.96; at human cathepsin F it was at most 5.00.

In the case of `N#CC1(NC(=O)[C@@H]2CCCC[C@H]2c2oc(-c3ccc(F)cc3)nc2-c2ccc(N3CCc4ccccc43)cc2)CC1` [Example 152, (1R,2R)-N-(1-cyanocyclopropyl)-2-(2-(4-fluorophenyl)-4-(4-(indolin-1-yl)phenyl)oxazol-5-yl)cyclohexanecarboxamide], the pIC50 is 7.05 at human cathepsin K and 6.08 on human cathepsin F.

Regarding `N#C[C@@H](NC(=O)[C@@H]1CCCC[C@H]1c1oc(-c2ccc(F)cc2)nc1-c1ccc(N2CCS(=O)(=O)CC2)cc1)C1CCCCC1` [Example 156, (1R,2R)-N-((S)-cyano(cyclohexyl)methyl)-2-(4-(4-(1,1-dioxidothiomorpholino)phenyl)-2-(4-fluorophenyl)oxazol-5-yl)cyclohexanecarboxamide], the pIC50 is 8.62 at human cathepsin K and 6.75 at human cathepsin F.

In the case of `N#CC(NC(=O)[C@@H]1CCCC[C@H]1c1oc(-c2ccc(F)cc2)nc1-c1ccc(N2CCS(=O)(=O)CC2)cc1)C(F)(F)F` (mixture of isomers) [Example 149, (1R,2R)-N-((S and R)-1-cyano-2,2,2-trifluoroethyl)-2-(4-(4-(1,1-dioxidothiomorpholino)phenyl)-2-(4-fluorophenyl)oxazol-5-yl)cyclohexanecarboxamide], the pIC50 on human cathepsin K is 8.89; at human cathepsin F it was 7.28.

Regarding `N#CC1(NC(=O)[C@@H]2CCCC[C@H]2c2oc(-c3ccccc3OC(F)F)nc2-c2ccc(N3CCS(=O)(=O)CC3)cc2)CC1` [Example 96, (1R,2R)-N-(1-cyanocyclopropyl)-2-(2-(2-(difluoromethoxy)phenyl)-4-(4-(1,1-dioxidothiomorpholino)phenyl)oxazol-5-yl)cyclohexanecarboxamide], the pIC50 on human cathepsin K is 9.06; on human cathepsin F it was 6.44.

With `N#CC1(NC(=O)[C@@H]2CCCC[C@H]2c2sc(C(F)(F)F)nc2-c2ccc(N3CCS(=O)(=O)CC3)cc2)CC1` [Example 60, (1R,2R)-N-(1-cyanocyclopropyl)-2-(4-(4-(1,1-dioxidothiomorpholino)phenyl)-2-(trifluoromethyl)thiazol-5-yl)cyclohexanecarboxamide], the pIC50 was 8.36 on human cathepsin K and 5.48 on human cathepsin F.
